Data: publication PMC5121239, “Muscle-Type Nicotinic Receptor Modulation by 2,6-Dimethylaniline, a Molecule Resembling the Hydrophobic Moiety of Lidocaine” (Frontiers in Molecular Neuroscience, 2016)
pEC50, pIC50: −log10 of the molar value.

What was measured:
[1] = biological target: T1, muscle-type nicotinic acetylcholine receptor (nAChR) (Torpedo marmorata, UniProt P02711+Q6S3H8+Q6S3H9+Q6S3I0); assay: two-electrode voltage clamp in Xenopus oocytes, agonist concentration-response; type: cell-based
T1 construct: gene CHRNA1; purified electroplax nAChR reconstituted in asolectin lipids and microtransplanted to Xenopus oocytes; with nAChR beta, gamma and delta subunits (alpha1, alpha2, beta, gamma, delta heteropentamer)
T1 sequence (P02711 25-461): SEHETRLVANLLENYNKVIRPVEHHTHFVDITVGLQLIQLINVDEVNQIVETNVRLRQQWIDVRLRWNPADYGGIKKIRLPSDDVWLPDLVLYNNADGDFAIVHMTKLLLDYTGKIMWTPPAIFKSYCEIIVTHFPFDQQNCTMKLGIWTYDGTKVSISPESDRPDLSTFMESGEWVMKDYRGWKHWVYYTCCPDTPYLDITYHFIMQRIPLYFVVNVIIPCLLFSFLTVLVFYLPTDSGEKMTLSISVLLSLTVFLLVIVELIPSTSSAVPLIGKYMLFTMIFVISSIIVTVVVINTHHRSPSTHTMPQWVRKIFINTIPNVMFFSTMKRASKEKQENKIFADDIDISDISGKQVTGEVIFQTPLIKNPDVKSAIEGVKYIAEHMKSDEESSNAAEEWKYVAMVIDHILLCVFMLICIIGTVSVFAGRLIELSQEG
T1 sequence (Q6S3I0 25-493): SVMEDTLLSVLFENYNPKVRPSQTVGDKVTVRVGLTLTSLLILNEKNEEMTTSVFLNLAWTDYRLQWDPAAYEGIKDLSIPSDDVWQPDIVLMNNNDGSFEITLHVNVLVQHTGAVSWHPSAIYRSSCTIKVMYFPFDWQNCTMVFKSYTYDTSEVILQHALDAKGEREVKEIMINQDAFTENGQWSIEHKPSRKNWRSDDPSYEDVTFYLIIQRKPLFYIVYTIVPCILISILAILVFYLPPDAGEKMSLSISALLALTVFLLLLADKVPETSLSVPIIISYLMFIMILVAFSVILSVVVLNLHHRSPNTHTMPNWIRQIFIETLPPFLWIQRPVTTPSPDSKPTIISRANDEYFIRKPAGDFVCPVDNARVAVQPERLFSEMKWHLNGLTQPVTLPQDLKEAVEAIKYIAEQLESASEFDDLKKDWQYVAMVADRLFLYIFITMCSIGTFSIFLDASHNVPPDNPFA
T1 sequence (Q6S3H9 18-505): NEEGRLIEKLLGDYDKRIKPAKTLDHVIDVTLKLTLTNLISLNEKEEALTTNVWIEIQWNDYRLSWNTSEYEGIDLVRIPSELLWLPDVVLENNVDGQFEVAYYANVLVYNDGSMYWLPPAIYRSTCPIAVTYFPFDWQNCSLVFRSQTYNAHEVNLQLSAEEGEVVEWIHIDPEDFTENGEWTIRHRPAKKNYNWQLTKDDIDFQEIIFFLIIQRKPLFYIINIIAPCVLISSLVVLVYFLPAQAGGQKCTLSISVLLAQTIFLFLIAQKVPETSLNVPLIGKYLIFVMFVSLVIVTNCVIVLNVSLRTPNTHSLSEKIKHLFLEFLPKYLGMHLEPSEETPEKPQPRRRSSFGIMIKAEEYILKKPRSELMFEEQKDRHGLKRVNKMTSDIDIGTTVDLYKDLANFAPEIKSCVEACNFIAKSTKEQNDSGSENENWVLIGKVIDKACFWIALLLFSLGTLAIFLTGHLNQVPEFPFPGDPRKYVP
T1 sequence (Q6S3H8 22-522): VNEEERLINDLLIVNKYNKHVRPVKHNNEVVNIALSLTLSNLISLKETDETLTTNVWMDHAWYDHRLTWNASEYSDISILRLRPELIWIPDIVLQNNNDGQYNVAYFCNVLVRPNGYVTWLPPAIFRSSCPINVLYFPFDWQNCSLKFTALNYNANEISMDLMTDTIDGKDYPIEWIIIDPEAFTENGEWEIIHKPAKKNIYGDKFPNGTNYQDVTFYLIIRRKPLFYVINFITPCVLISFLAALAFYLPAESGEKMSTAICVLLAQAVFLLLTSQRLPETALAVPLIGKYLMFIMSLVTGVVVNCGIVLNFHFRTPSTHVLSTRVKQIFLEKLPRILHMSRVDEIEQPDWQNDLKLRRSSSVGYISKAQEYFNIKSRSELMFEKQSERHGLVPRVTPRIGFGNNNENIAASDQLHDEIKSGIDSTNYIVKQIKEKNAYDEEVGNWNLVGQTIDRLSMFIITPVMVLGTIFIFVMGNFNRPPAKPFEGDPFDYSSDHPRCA

[2] = biological target: T1, muscle-type nicotinic acetylcholine receptor (nAChR); assay: two-electrode voltage clamp in Xenopus oocytes, inhibition of current evoked by […] ACh; type: cell-based

SMILES: CC(=O)OCC[N+](C)(C)C [ACh, acetylcholine]
- pEC50 [1]: 4.54

SMILES: Cc1cccc(C)c1N [DMA, 2,6-dimethylaniline]
- pIC50 [2]: 2.68
